Results taken from US12590057B2, “Crystalline complexes” (Theracryf PLC, priority 2020, dated 2026).

Experiments:
[1] = Typical water content of the crystalline forms; format: physicochemical
Experimental: The water content of a sample can be determined by any suitable means as will be apparent to one of skill in the art. In one embodiment, the water content is determined by Karl-Fischer titration. In one embodiment, the water content is determined by thermogravimetric analysis (TGA). In one embodiment, the water content is determined by gravimetric vapour sorption (GVS). After formation of the crystalline complex according to the invention, the water content may be as low as 1-3% w/w. However, after exposure of the complex to ambient conditions (25° C., 40% RH) the material typically equilibrates (e.g. over a period of 3-7 days) to a water content of up to 5-7% w/w. It has been found, however, that Form 3, once equilibrated to 5-7% w/w water, maintains physical form at 60% RH making it unexpectedly stable over the 0% and 60% humidity range.

[2] = Variable humidity XRPD (VH-XRPD) at 25° C.; format: physicochemical; conditions: 25° C.
From the text: Non-ambient conditions: XRPD diffractograms were collected on a PANalytical Empyrean diffractometer using Cu Kα radiation (45 kV, 40 mA) in reflection geometry. The instrument is fitted with an Anton Paar CHC plus^+ stage fitted with graphite/Kapton windows and equipped with air cooling coupled with a proUmid MHG32 Modular Humidity Generator or a low vacuum pump system using an Edwards RV3 pump. A programmable divergence slit (in automatic mode), with a 10 mm fixed incident beam mask, Ni filter and 0.04 rad Soller slits were used on the incident beam. A PIXcel^3D detector, placed on the diffracted beam, was fitted with a programmable anti-scatter slit (in automatic mode) and 0.04 rad Soller slits. The software used for data collection was X'Pert Data Collector and the data analysed and presented using Diffrac Plus EVA or Highscore Plus. For variable humidity (VH-XRPD) experiments the samples were prepared and analysed in an Anton Paar chromed low-profile sample holder with silicon wafer insert. The measurement parameters are as per the standard screening data collection method (detailed above). For all variable humidity XRPD experiments, a pattern was recorded every hour. […] The Form 1 sample was loaded into the VH chamber, which was set to 40% RH and 25° C. and then the RH was decreased in 10% decrements to 10% RH followed by increasing the RH in 10% increments to 90% RH, while maintaining the temperature at 25° C. […] The sample then quickly transitioned from Form 1 at 80% RH to Form 2 at 90% RH. A variable humidity (VH) XRPD experiment was performed to examine how Form 3 exists under different RH conditions. […] The sample was stable as Form 2 for 8 hours at 80% RH. At 90% RH Form 2 existed for 2 hours before the sample deliquesced in the humidity chamber.

## C[S+]([O-])CCCCN=C=S.OCC1OC2OC3C(CO)OC(OC4C(CO)OC(OC5C(CO)OC(OC6C(CO)OC(OC7C(CO)OC(OC1C(O)C2O)C(O)C7O)C(O)C6O)C(O)C5O)C(O)C4O)C(O)C3O (centres unmarked) [Form 2]
[1]
  Typical water content: 13-20 % w/w
[2]
  Stability at 25° C. (RH range in which the form is stable): Above 80% RH
